# Patent US9550756B2, “Pyridazinone compounds as phosphodiesterase inhibitors and methods of treating disorders” (Takeda Pharmaceutical Company Limited, priority 2009, dated 2017)
# System: Male ICR mice
# Experiment: Improvement of MK-801-induced prepulse inhibition (PPI) deficits
# Type: in vivo
# Conditions: 0.3 mg/kg, MK-801 0.3 mg/kg s.c., FIG. 3
# Source text: Male ICR mice were supplied by CLEA Japan, Inc (Japan). After arrival to the vivarium, animals were allowed a minimum of 1 week for acclimation. They were housed under a 12:12-h light/dark cycle in a temperature- and humidity-controlled laboratory and allowed food and water ad libitum. The care and use of the animals and the experimental protocols used in this research were approved by the Experimental Animal Care and Use Committee of Takeda Pharmaceutical Company, Ltd (Osaka, Japan).
# The compounds were suspended in 0.5% methylcellulose in saline or distilled water, and administered by intraperitoneally (i.p.) or orally (p.o.), respectively. Methamphetamine (Dainippon Sumitomo Pharma Co., Ltd.) and MK-801 (Sigma-Aldrich, St Louis, Mo.) were dissolved in saline, and administered subcutaneously (s.c.). […]
# PPI is a measure of sensorimotor gating and is one of a few neuropsychological measures in which humans and rodents can be evaluated in a similar fashion (Psychopharmacology (Berl) 2001, vol. 156: 117-154). We evaluated whether compound could reverse PPI deficits induced by MK-801 using male ICR mice. […] Placement of mice inside the cylinders allowed the whole-body startle responses induced by the acoustic stimuli to be measured via the transduction of movement into analog signals by a piezoelectric unit attached to the platform. […]
row,SMILES,MK-801-induced PPI deficits
1,Cc1nc2n(c(=O)c1CCN1CCC(c3noc4cc(F)ccc34)CC1)CCCC2 [Risperidone],significantly reversed

# System: not given
# Experiment: not given
# Conditions: not given
row,melting point,SMILES
1,189 to 190 °C,"O=c1ccn(-c2cccc(C(F)(F)F)c2)nc1-c1ccnn1-c1ccccn1 [Example 35, 3-(1-Pyridin-2-yl-1H-pyrazol-5-yl)-1-[3-(trifluoromethyl)phenyl]pyridazin-4(1H)-one]"
2,167 to 168 °C,"O=c1ccn(-c2cccc(C(F)(F)F)c2)nc1-c1ncnn1-c1ccccc1 [Example 42, 3-(1-Phenyl-1H-1,2,4-triazol-5-yl)-1-[3-(trifluoromethyl)phenyl]pyridazin-4(1H)-one]"
3,149 to 150 °C,"O=c1ccn(-c2cccc(Oc3nc4ccccc4[nH]3)c2)nc1-c1ccnn1-c1ccccc1 [Example 37, 1-[3-(1H-Benzimidazol-2-yloxy)phenyl]-3-(1-phenyl-1H-pyrazol-5-yl)pyridazin-4(1H)-one]"
4,202 to 203 °C,"O=c1ccn(-c2ccncc2)nc1-c1ccnn1-c1ccccc1 [Example 31, 3-(1-Phenyl-1H-pyrazol-5-yl)-1-pyridin-4-ylpyridazin-4(1H)-one]"
5,166 to 167 °C,"O=c1ccn(-c2cccc(C(F)(F)F)c2)nc1-c1ccnn1-c1ccc(Cl)cc1 [Example 3, 3-[1-(4-Chlorophenyl)-1H-pyrazol-5-yl]-1-[3-(trifluoromethyl)phenyl]pyridazin-4(1H)-one]"
6,218 to 220 °C,"O=c1c(O)cn(-c2ccccc2F)nc1-c1ccnn1-c1ccccc1 [Example 63, 1-(2-Fluorophenyl)-5-hydroxy-3-(1-phenyl-1H-pyrazol-5-yl)pyridazin-4(1H)-one]"

# The next lines start with the compound.
row,SMILES,melting point
1,"O=c1c(OC(F)F)cn(-c2cccc(C(F)(F)F)c2)nc1-c1ccnn1-c1ccccc1 [Example 62, 5-(Difluoromethoxy)-3-(1-phenyl-1H-pyrazol-5-yl)-1-[3-(trifluoromethyl)phenyl]pyridazin-4(1H)-one]",132 to 134 °C
2,"CC(C)n1nccc1-c1nn(-c2cccc(C(F)(F)F)c2)ccc1=O [Example 33, 3-[1-(1-Methylethyl)-1H-pyrazol-5-yl]-1-[3-(trifluoromethyl)phenyl]pyridazin-4(1H)-one]",183 to 184 °C
3,"CC(C)Cn1nccc1-c1nn(-c2cccc(C(F)(F)F)c2)ccc1=O [Example 34, 3-[1-(2-Methylpropyl)-1H-pyrazol-5-yl]-1-[3-(trifluoromethyl)phenyl]pyridazin-4(1H)-one]",120 to 121 °C
4,"CC(C)n1cc(-c2nn(-c3cccc(C(F)(F)F)c3)ccc2=O)c(-c2ccccc2)n1 [Example 77, 3-[1-(1-Methylethyl)-3-phenyl-1H-pyrazol-4-yl]-1-[3-(trifluoromethyl)phenyl]pyridazin-4(1H)-one]",138 to 140 °C
